Assay results: patent US10405547B2, “Substituted cyclic amides as herbicides” (FMC Corporation, priority 2015, dated 2019)

Legend:
Format in all cases: in vivo
[1] = system: ragweed (common ragweed, Ambrosia elatior); assay: Test A postemergence, ragweed; conditions: visual injury, 0 to 100 scale (0 no effect, 100 complete control), approximately 10 days
Procedure, shortened: (§1)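 Greenhouse assay; ~10 d; visual injury vs untreated control, scored 0 = no effect through 100 = complete control. Post-emergent seedlings at one–two leaves; pre-emergent seeds in loam/sand given a directed soil spray.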

[2] = system: wheat (Triticum aestivum); assay: Test A postemergence, wheat; conditions: visual injury, 0 to 100 scale (0 no effect, 100 complete control), approximately 10 days
Procedure, shortened: as §1

[3] = system: foxtail, giant (Setaria faberii); assay: Test A postemergence, giant foxtail; conditions: visual injury, 0 to 100 scale (0 no effect, 100 complete control), approximately 10 days
Procedure, shortened: as §1

corn (Zea mays) = assay: Test A postemergence, corn; conditions: visual injury, 0 to 100 scale (0 no effect, 100 complete control), approximately 10 days
Procedure, shortened: as §1

[4] = system: pigweed (Amaranthus retroflexus); assay: Test A preemergence, pigweed; conditions: 0 to 100 scale (0 no effect, 100 complete control)
Procedure, shortened: as §1

kochia (Kochia scoparia) [5] = assay: Test A preemergence, kochia; conditions: 0 to 100 scale (0 no effect, 100 complete control)
Procedure, shortened: as §1

[6] = system: foxtail, giant (Setaria faberii); assay: Test A preemergence, giant foxtail; conditions: 0 to 100 scale (0 no effect, 100 complete control)
Procedure, shortened: as §1

[7] = system: barnyardgrass (Echinochloa crus-galli); assay: Test B flooded paddy test, barnyardgrass; conditions: applied to paddy water, visual rating after 13 to 15 days, scale 0 (no effect) to 100 (complete control)
Procedure, shortened: (§2)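 Pots were flooded to 3 cm above the soil surface at treatment, compound applied directly to the paddy water, and that depth held throughout. Plants were kept in a greenhouse for 13 to 15 days, then visually rated against untreated controls.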

[8] = system: pigweed (Amaranthus retroflexus); assay: Test A postemergence, pigweed; conditions: visual injury, 0 to 100 scale (0 no effect, 100 complete control), approximately 10 days
Procedure, shortened: as §1

[9] = system: barnyardgrass (Echinochloa crus-galli); assay: Test A preemergence, barnyardgrass; conditions: 0 to 100 scale (0 no effect, 100 complete control)
Procedure, shortened: as §1

[10] = system: ducksalad (Heteranthera limosa); assay: Test B flooded paddy test, ducksalad; conditions: applied to paddy water, visual rating after 13 to 15 days, scale 0 (no effect) to 100 (complete control)
Procedure, shortened: as §2

[11] = system: ragweed (common ragweed, Ambrosia elatior); assay: Test A preemergence, ragweed; conditions: 0 to 100 scale (0 no effect, 100 complete control)
Procedure, shortened: as §1

[12] = system: ryegrass, Italian (Lolium multiflorum); assay: Test A preemergence, Italian ryegrass; conditions: 0 to 100 scale (0 no effect, 100 complete control)
Procedure, shortened: as §1

[13] = system: ryegrass, Italian (Lolium multiflorum); assay: Test A postemergence, Italian ryegrass; conditions: visual injury, 0 to 100 scale (0 no effect, 100 complete control), approximately 10 days
Procedure, shortened: as §1

rice (Oryza sativa) = assay: Test B flooded paddy test, rice; conditions: applied to paddy water, visual rating after 13 to 15 days, scale 0 (no effect) to 100 (complete control)
Procedure, shortened: as §2

kochia (Kochia scoparia) [14] = assay: Test A postemergence, kochia; conditions: visual injury, 0 to 100 scale (0 no effect, 100 complete control), approximately 10 days
Procedure, shortened: as §1

[15] = system: blackgrass (Alopecurus myosuroides); assay: Test A postemergence, blackgrass; conditions: visual injury, 0 to 100 scale (0 no effect, 100 complete control), approximately 10 days
Procedure, shortened: as §1

[16] = system: galium (catchweed bedstraw, Galium aparine); assay: Test A postemergence, galium; conditions: visual injury, 0 to 100 scale (0 no effect, 100 complete control), approximately 10 days
Procedure, shortened: as §1

[17] = system: barnyardgrass (Echinochloa crus-galli); assay: Test A postemergence, barnyardgrass; conditions: visual injury, 0 to 100 scale (0 no effect, 100 complete control), approximately 10 days
Procedure, shortened: as §1

[18] = system: sedge, umbrella (small-flower umbrella sedge, Cyperus difformis); assay: Test B flooded paddy test, umbrella sedge; conditions: applied to paddy water, visual rating after 13 to 15 days, scale 0 (no effect) to 100 (complete control)
Procedure, shortened: as §2

Compound	Plant response rating, Ragweed ([1]; 125 g ai/ha)	Plant response rating, Ragweed ([1]; 500 g ai/ha)	Plant response rating, Wheat ([2]; 125 g ai/ha)	Plant response rating, Wheat ([2]; 500 g ai/ha)	Plant response rating, Foxtail, Giant ([3]; 125 g ai/ha)	Plant response rating, Foxtail, Giant ([3]; 500 g ai/ha)	Plant response rating, Corn (corn (Zea mays); 125 g ai/ha)	Plant response rating, Corn (corn (Zea mays); 500 g ai/ha)	Plant response rating, Pigweed ([4]; 125 g ai/ha)	Plant response rating, Pigweed ([4]; 500 g ai/ha)	Plant response rating, Kochia (kochia (Kochia scoparia) [5]; 125 g ai/ha)	Plant response rating, Kochia (kochia (Kochia scoparia) [5]; 500 g ai/ha)	Plant response rating, Foxtail, Giant ([6]; 125 g ai/ha)	Plant response rating, Foxtail, Giant ([6]; 500 g ai/ha)	Plant response rating, Pigweed ([8]; 125 g ai/ha)	Plant response rating, Pigweed ([8]; 500 g ai/ha)	Plant response rating, Barnyardgrass ([9]; 125 g ai/ha)	Plant response rating, Barnyardgrass ([9]; 500 g ai/ha)	Plant response rating, Ragweed ([11]; 125 g ai/ha)	Plant response rating, Ragweed ([11]; 500 g ai/ha)	further results
O=C1NCC(c2cccc(OCc3ccccc3)c2)C1C(=O)Nc1cccc(F)c1F (stereo not drawn) [Compound 65]	0	0	0	0	0	0	0	0	0	0	0	0	0	0	0	0	0	0	0	0	Plant response rating, Barnyardgrass (Flood) ([7]; 500 g ai/ha): 0; Plant response rating, Ducksalad (Flood) ([10]; 500 g ai/ha): 0; Plant response rating, Ryegrass, Italian ([12]; 125 g ai/ha): 0; Plant response rating, Ryegrass, Italian ([12]; 500 g ai/ha): 0; Plant response rating, Ryegrass, Italian ([13]; 125 g ai/ha): 0; Plant response rating, Ryegrass, Italian ([13]; 500 g ai/ha): 0; Plant response rating, Rice (Flood) (rice (Oryza sativa); 500 g ai/ha): 0; Plant response rating, Kochia (kochia (Kochia scoparia) [14]; 125 g ai/ha): 0; Plant response rating, Kochia (kochia (Kochia scoparia) [14]; 500 g ai/ha): 0; Plant response rating, Blackgrass ([15]; 125 g ai/ha): 0; Plant response rating, Blackgrass ([15]; 500 g ai/ha): 0; Plant response rating, Galium ([16]; 125 g ai/ha): 0; Plant response rating, Galium ([16]; 500 g ai/ha): 0; Plant response rating, Barnyardgrass ([17]; 125 g ai/ha): 0; Plant response rating, Barnyardgrass ([17]; 500 g ai/ha): 0; Plant response rating, Sedge, Umbrella (Flood) ([18]; 500 g ai/ha): 0
O=C1NCC(c2cccc(Cn3ccc(C(F)(F)F)n3)c2)C1C(=O)Nc1ccc(F)cc1F (stereo not drawn) [Compound 24]	0	0	0	0	0	0	0	0	0	0	0	0	0	0	0	0	0	0	0	0	Plant response rating, Barnyardgrass (Flood) ([7]; 500 g ai/ha): 0; Plant response rating, Ducksalad (Flood) ([10]; 500 g ai/ha): 0; Plant response rating, Ryegrass, Italian ([12]; 125 g ai/ha): 0; Plant response rating, Ryegrass, Italian ([12]; 500 g ai/ha): 0; Plant response rating, Ryegrass, Italian ([13]; 125 g ai/ha): 0; Plant response rating, Ryegrass, Italian ([13]; 500 g ai/ha): 0; Plant response rating, Rice (Flood) (rice (Oryza sativa); 500 g ai/ha): 0; Plant response rating, Kochia (kochia (Kochia scoparia) [14]; 125 g ai/ha): 0; Plant response rating, Kochia (kochia (Kochia scoparia) [14]; 500 g ai/ha): 0; Plant response rating, Blackgrass ([15]; 125 g ai/ha): 0; Plant response rating, Blackgrass ([15]; 500 g ai/ha): 0; Plant response rating, Galium ([16]; 125 g ai/ha): 0; Plant response rating, Galium ([16]; 500 g ai/ha): 0; Plant response rating, Barnyardgrass ([17]; 125 g ai/ha): 0; Plant response rating, Barnyardgrass ([17]; 500 g ai/ha): 0; Plant response rating, Sedge, Umbrella (Flood) ([18]; 500 g ai/ha): 0
CN(C)N=Cc1cccc(C2CN(C)C(=O)C2C(=O)Nc2ccccc2F)c1 (stereo not drawn) [Compound 54]	0	0	0	0	0	20	0	0	0	0	0	0	0	70	0	0	0	20	0	0	Plant response rating, Barnyardgrass (Flood) ([7]; 250 g ai/ha): 0; Plant response rating, Ducksalad (Flood) ([10]; 250 g ai/ha): 0; Plant response rating, Ryegrass, Italian ([12]; 125 g ai/ha): 0; Plant response rating, Ryegrass, Italian ([12]; 500 g ai/ha): 0; Plant response rating, Ryegrass, Italian ([13]; 125 g ai/ha): 0; Plant response rating, Ryegrass, Italian ([13]; 500 g ai/ha): 0; Plant response rating, Rice (Flood) (rice (Oryza sativa); 250 g ai/ha): 0; Plant response rating, Kochia (kochia (Kochia scoparia) [14]; 125 g ai/ha): 0; Plant response rating, Kochia (kochia (Kochia scoparia) [14]; 500 g ai/ha): 0; Plant response rating, Blackgrass ([15]; 125 g ai/ha): 0; Plant response rating, Blackgrass ([15]; 500 g ai/ha): 0; Plant response rating, Galium ([16]; 125 g ai/ha): 0; Plant response rating, Galium ([16]; 500 g ai/ha): 0; Plant response rating, Barnyardgrass ([17]; 125 g ai/ha): 0; Plant response rating, Barnyardgrass ([17]; 500 g ai/ha): 30; Plant response rating, Sedge, Umbrella (Flood) ([18]; 250 g ai/ha): 0
CC1(COc2cccc(C3CNC(=O)C3C(=O)Nc3ccccc3C(F)(F)F)c2)COC1 (stereo not drawn) [Compound 15]	0	30	0	0	10	20	0	0	0	0	0	0	10	40	0	0	0	60	0	0	Plant response rating, Barnyardgrass (Flood) ([7]; 250 g ai/ha): 0; Plant response rating, Ducksalad (Flood) ([10]; 250 g ai/ha): 50; Plant response rating, Ryegrass, Italian ([12]; 125 g ai/ha): 0; Plant response rating, Ryegrass, Italian ([12]; 500 g ai/ha): 0; Plant response rating, Ryegrass, Italian ([13]; 125 g ai/ha): 0; Plant response rating, Ryegrass, Italian ([13]; 500 g ai/ha): 0; Plant response rating, Rice (Flood) (rice (Oryza sativa); 250 g ai/ha): 0; Plant response rating, Kochia (kochia (Kochia scoparia) [14]; 125 g ai/ha): 0; Plant response rating, Kochia (kochia (Kochia scoparia) [14]; 500 g ai/ha): 0; Plant response rating, Blackgrass ([15]; 125 g ai/ha): 0; Plant response rating, Blackgrass ([15]; 500 g ai/ha): 0; Plant response rating, Galium ([16]; 125 g ai/ha): 0; Plant response rating, Galium ([16]; 500 g ai/ha): 0; Plant response rating, Barnyardgrass ([17]; 125 g ai/ha): 0; Plant response rating, Barnyardgrass ([17]; 500 g ai/ha): 0; Plant response rating, Sedge, Umbrella (Flood) ([18]; 250 g ai/ha): 0
CC1(COc2cccc(C3CNC(=O)C3C(=O)Nc3ccccc3Cl)c2)COC1 (stereo not drawn) [Compound 16]	0	0	0	0	0	20	0	0	0	0	0	0	10	70	0	0	0	60	0	0	Plant response rating, Barnyardgrass (Flood) ([7]; 250 g ai/ha): 0; Plant response rating, Ducksalad (Flood) ([10]; 250 g ai/ha): 30; Plant response rating, Ryegrass, Italian ([12]; 125 g ai/ha): 0; Plant response rating, Ryegrass, Italian ([12]; 500 g ai/ha): 0; Plant response rating, Ryegrass, Italian ([13]; 125 g ai/ha): 0; Plant response rating, Ryegrass, Italian ([13]; 500 g ai/ha): 0; Plant response rating, Rice (Flood) (rice (Oryza sativa); 250 g ai/ha): 0; Plant response rating, Kochia (kochia (Kochia scoparia) [14]; 125 g ai/ha): 0; Plant response rating, Kochia (kochia (Kochia scoparia) [14]; 500 g ai/ha): 0; Plant response rating, Blackgrass ([15]; 125 g ai/ha): 0; Plant response rating, Blackgrass ([15]; 500 g ai/ha): 0; Plant response rating, Galium ([16]; 125 g ai/ha): 0; Plant response rating, Galium ([16]; 500 g ai/ha): 0; Plant response rating, Barnyardgrass ([17]; 125 g ai/ha): 0; Plant response rating, Barnyardgrass ([17]; 500 g ai/ha): 50; Plant response rating, Sedge, Umbrella (Flood) ([18]; 250 g ai/ha): 30
